System: Jurkat cells
Test: Jurkat cell proliferation, compound alone or in combination with bleomycin, living cells counted by the MTS method
Type: cell-based
Details: 36 hours; for Activity (enhancement of the inhibitory effect of bleomycin on cell proliferation): Jurkat cells, combined with bleomycin 5 μg/ml or 10 μg/ml, survival rate vs DMSO control
Description: By using these compounds, effects on proliferation of Jurkat cells by sole administration and inhibitory effects on cell proliferation by administration in combination with bleomycin were examined. Materials and methods are as follows. Jurkat cells obtained from Dainippon Pharmaceutical Co. Ltd. were inoculated at about 10,000 cells per well in a 96 well culture plate, and incubated in 10% bovine fetal serum (Irvine Scientific) supplemented with RPMI1640(ICN) medium in 5% CO2 incubator at 37° C. […] 36 hours after the incubation, the number of living cells was counted by the MTS method.
More specifically, 20 μl of CellTiter96™ AQueous One Solution (Promega) was added per one well, and after the cells were incubated for additional one hour, an absorbance at 490 nm was measured by using a microplate reader. The same culture added with DMSO as a solvent at final concentration of 0.25% was used as a control. The number of cells in the control was considered as 100% survival rate, and for each compound, survival rates by sole administration or a combined administration were calculated. […] In the table, ++ indicates observation of remarkable enhancement, + indicates moderated enhancement, and ± indicates weak enhancement.

| Compound | Activity (enhancement of the inhibitory effect of bleomycin on cell proliferation) | decrease in the survival rates of the Jurkat cells (bleomycin alone at 5 μg/ml or 10 μg/ml, DMSO control = 100% survival) |
| --- | --- | --- |
| O=C(Nc1cc2ccc(O)cc2oc1=O)c1ccccc1 [Compound 1, N-(7-hydroxy-2-oxo-2H-1-benzopyran-3-yl)benzamide] | ± | – |
| O=C(Nc1cc2ccc(O)cc2oc1=O)c1ccccc1Cl [Compound 2, 2-chloro-N-(7-hydroxy-2-oxo-2H-1-benzopyran-3-yl)benzamide] | + | – |
| O=C(Nc1cc2ccc(O)cc2oc1=O)c1cccc(Cl)c1 [Compound 3, 3-chloro-N-(7-hydroxy-2-oxo-2H-1-benzopyran-3-yl)benzamide] | + | – |
| O=C(Nc1cc2ccc(O)cc2oc1=O)c1cccc(Br)c1 [Compound 4, 3-bromo-N-(7-hydroxy-2-oxo-2H-1-benzopyran-3-yl)benzamide] | + | – |
| O=C(Nc1cc2ccc(O)cc2oc1=O)c1ccc(Cl)cc1 [Compound 5, 4-chloro-N-(7-hydroxy-2-oxo-2H-1-benzopyran-3-yl)benzamide] | ± | – |
| O=C(Nc1cc2ccc(O)cc2oc1=O)c1ccc(F)cc1 [Compound 6, 4-fluoro-N-(7-hydroxy-2-oxo-2H-1-benzopyran-3-yl)benzamide] | ± | – |
| Cc1ccccc1C(=O)Nc1cc2ccc(O)cc2oc1=O [Compound 8, N-(7-hydroxy-2-oxo-2H-1-benzopyran-3-yl)-2-methylbenzamide] | + | – |
| O=C(Nc1cc2ccc(O)cc2oc1=O)c1ccc(C(F)(F)F)cc1 [Compound 13, N-(7-hydroxy-2-oxo-2H-1-benzopyran-3-yl)-4-(trifluoromethyl)benzamide] | + | – |
| O=C(Nc1cc2ccc(O)cc2oc1=O)c1ccc(-c2ccccc2)cc1 [Compound 14, N-(7-hydroxy-2-oxo-2H-1-benzopyran-3-yl)-[1,1′-biphenyl]-4-carboxamide] | ++ | – |
| COc1ccccc1C(=O)Nc1cc2ccc(O)cc2oc1=O [Compound 15, N-(7-hydroxy-2-oxo-2H-1-benzopyran-3-yl)-2-methoxybenzamide] | ± | – |
| COc1cccc(C(=O)Nc2cc3ccc(O)cc3oc2=O)c1 [Compound 16, N-(7-hydroxy-2-oxo-2H-1-benzopyran-3-yl)-3-methoxybenzamide] | ± | – |
| O=C(Nc1cc2ccc(O)cc2oc1=O)c1ccc([N+](=O)[O-])cc1 [Compound 20, N-(7-hydroxy-2-oxo-2H-1-benzopyran-3-yl)-4-nitrobenzamide] | ± | – |
| COC(=O)c1ccc(C(=O)Nc2cc3ccc(O)cc3oc2=O)cc1 [Compound 21, 4-[[N-(7-hydroxy-2-oxo-2H-1-benzopyran-3-yl)amino]carbonyl]benzoic acid methyl ester] | ± | – |
| N#Cc1ccc(C(=O)Nc2cc3ccc(O)cc3oc2=O)cc1 [Compound 22, 4-cyano-N-(7-hydroxy-2-oxo-2H-1-benzopyran-3-yl)benzamide] | + | – |
| O=C(Nc1cc2ccc(O)cc2oc1=O)c1cccc2ccccc12 [Compound 23, N-(7-hydroxy-2-oxo-2H-1-benzopyran-3-yl)-1-naphthalenecarboxamide] | + | – |
| O=C(Nc1cc2ccc(O)cc2oc1=O)c1ccc2ccccc2c1 [Compound 24, N-(7-hydroxy-2-oxo-2H-1-benzopyran-3-yl)-2-naphthalenecarboxamide] | ± | – |
| O=C(Nc1cc2ccc(O)cc2oc1=O)c1ccco1 [Compound 25, N-(7-hydroxy-2-oxo-2H-1-benzopyran-3-yl)-2-furancarboxamide] | ± | – |
| O=C(Nc1cc2ccc(O)cc2oc1=O)c1cccs1 [Compound 26, N-(7-hydroxy-2-oxo-2H-1-benzopyran-3-yl)-2-thiophenecarboxamide] | ± | – |
| O=C(Nc1cc2ccc(O)cc2oc1=O)c1cccnc1Cl [Compound 27, 2-chloro-N-(7-hydroxy-2-oxo-2H-1-benzopyran-3-yl)-3-pyridinecarboxamide] | ± | – |
| O=C(Nc1cc2ccc(O)cc2oc1=O)c1ccc2c(c1)OCO2 [Compound 28, N-(7-hydroxy-2-oxo-2H-1-benzopyran-3-yl)-1,3-benzodioxole-5-carboxamide] | ± | – |
| CC(C)(C)C(=O)Nc1cc2ccc(O)cc2oc1=O [Compound 29, N-(7-hydroxy-2-oxo-2H-1-benzopyran-3-yl)-2,2-dimethylpropanamide] | ± | – |
| O=C(Cc1ccccc1)Nc1cc2ccc(O)cc2oc1=O [Compound 30, N-(7-hydroxy-2-oxo-2H-1-benzopyran-3-yl)benzeneacetamide] | + | – |
| bleomycin [reference compound] | – | 5 to 10% |

Reference: patent US7411076B2, “Coumarin derivative” (Institute of Medicinal Molecular Design, Inc., priority 2002, dated 2008)
